Entries after “also recorded” stand apart in the source; their conditions may differ.
Test system: MDA-MB-231 cells
Assay: Acridine orange/ethidium bromide
Assay type: cell-based, human
Conditions: fluorescence microscopy

COc1cc(/C=C/C(=O)c2c3[nH]c4ccccc4c3cc[n+]2Cc2ccccc2)cc(OC)c1OC.[Br-] [Compound 13g] was tested. Which “Cell death / apoptosis by AO/EB staining” value did it give?
The value was “induces apoptosis; also recorded: markedly induced cell death”.

How did the “Cell death / apoptosis by AO/EB staining” value turn out when COc1cccc2c1C(=O)c1c(O)c3c(c(O)c1C2=O)C[C@@](O)(C(=O)CO)C[C@@H]3O[C@H]1C[C@H](N)[C@H](O)[C@H](C)O1 [Doxorubicin, reference compound] was run?
The value was “morphological changes characteristic of apoptotic cells formation”.
